According to the supplement of paper PMC10307832:

How the values were obtained:
Experiment in all cases: relative viability (nuclei count vs DMSO), 5 days (fraction); higher = more cells survive
[1] = compound: C1=CC2=NC=CN=C2C=C1/C=C/3\C(=O)NC(=O)S3 + CS(=O)(=O)N1CCN(Cc2cc3nc(-c4cccc5[nH]ncc45)nc(N4CCOCC4)c3s2)CC1 [Pictilisib] (partner 1 µM)
Method in brief: (§1)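 One day after seeding in 1536-well plates, lung cancer cell lines were dosed by pin tool. Dosing was either single-drug or a fixed anchor-drug dose plus five library-drug doses (not always all listed) in √10 steps. After 5 days, nuclei were stained in one fix-and-stain step and counted on 4× images, and relative viability is the nuclei count of treated wells over that of vehicle wells, given as the median of duplicate plates.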

[2] = compound: C1=CC2=NC=CN=C2C=C1/C=C/3\C(=O)NC(=O)S3 + COc1cccc2cc(-c3nc([C@H]4CC[C@H](C(=O)O)CC4)n4ncnc(N)c34)[nH]c12 [OSI-027] (partner 0.5 µM)
Method in brief: as §1

[3] = compound: C1=CC2=NC=CN=C2C=C1/C=C/3\C(=O)NC(=O)S3 + Cc1cc(Nc2cc(N3CCN(C)CC3)nc(Sc3ccc(NC(=O)C4CC4)cc3)n2)n[nH]1 [Tozasertib] (partner 0.1 µM)
Method in brief: as §1

[4] = compound: C1=CC2=NC=CN=C2C=C1/C=C/3\C(=O)NC(=O)S3 + C[C@]1(O)C[C@@H](c2nc(-c3ccc4ccc(-c5ccccc5)nc4c3)c3c(N)nccn32)C1 [Linsitinib] (partner 1 µM)
Method in brief: as §1

Cell Line	relative viability ([1]; first compound 0.02 µM)	relative viability ([1]; first compound 0.06325 µM)	relative viability ([1]; first compound 0.2 µM)	relative viability ([1]; first compound 0.6325 µM)	relative viability ([1]; first compound 2 µM)	relative viability ([2]; first compound 0.02 µM)	relative viability ([2]; first compound 0.06325 µM)	relative viability ([2]; first compound 0.2 µM)	relative viability ([2]; first compound 0.6325 µM)	relative viability ([2]; first compound 2 µM)	relative viability ([3]; first compound 0.02 µM)	relative viability ([3]; first compound 0.06325 µM)	relative viability ([3]; first compound 0.2 µM)	relative viability ([3]; first compound 0.6325 µM)	relative viability ([3]; first compound 2 µM)	relative viability ([4]; first compound 0.02 µM)	relative viability ([4]; first compound 0.06325 µM)	relative viability ([4]; first compound 0.2 µM)	relative viability ([4]; first compound 0.6325 µM)	relative viability ([4]; first compound 2 µM)
201T	0.606	0.799	0.712	0.666	0.573	0.664	0.682	0.714	0.671	0.23	0.8	0.922	0.917	0.873	0.854	0.807	1.07	0.997	0.949	1.01
A549	0.518	0.646	0.453	0.555	0.464	–	–	–	–	–	–	–	–	–	–	0.648	0.682	0.627	0.546	0.6
A-427	0.711	0.685	0.788	0.675	0.679	0.476	0.55	0.54	0.435	0.365	0.209	0.241	0.198	0.198	0.228	1.07	1.16	1.12	1.14	1.07
ABC-1	0.676	0.67	0.721	0.673	0.576	0.434	0.509	0.509	0.408	0.232	0.175	0.217	0.193	0.165	0.179	0.76	0.761	0.758	1.01	0.804
BEN	0.54	0.622	0.613	0.496	0.556	0.306	0.287	0.288	0.289	0.275	0.525	0.446	0.551	0.517	0.683	0.812	0.922	0.899	0.843	0.93
CAL-12T	0.341	0.444	0.716	0.39	0.64	0.489	0.648	0.741	0.542	0.33	0.289	0.383	0.346	0.313	0.331	0.679	0.844	0.953	0.881	0.839
COR-L23	0.784	1.01	0.78	0.717	0.453	0.781	0.898	0.873	0.74	0.497	0.168	0.218	0.19	0.211	0.188	0.874	0.89	0.978	0.861	0.951
COR-L 105	0.396	0.435	0.377	0.398	0.337	0.743	0.669	0.729	0.623	0.435	0.311	0.369	0.343	0.349	0.354	0.897	0.949	0.947	0.851	1.03
Calu-6	0.923	1.15	1.04	0.989	0.973	–	–	–	–	–	–	–	–	–	–	0.946	1.13	1.05	0.899	0.876
ChaGo-K-1	0.886	1.26	1.07	0.665	0.621	0.567	0.58	0.544	0.424	0.352	0.243	0.215	0.248	0.232	0.239	–	–	–	–	–
EBC-1	0.407	0.518	0.42	0.413	0.459	–	–	–	–	–	–	–	–	–	–	0.88	1.22	0.922	0.953	0.925
EKVX	0.355	0.384	0.42	0.422	0.375	0.69	0.405	0.683	0.683	0.408	0.423	0.321	0.38	0.449	0.352	0.772	0.845	0.983	0.981	0.945
EMC-BAC-2	0.431	0.552	0.563	0.482	0.463	0.307	0.436	0.416	0.37	0.251	0.276	0.253	0.368	0.243	0.297	0.765	0.906	0.822	0.808	0.869
EPLC-272H	0.411	0.407	0.364	0.297	0.153	0.303	0.264	0.307	0.256	0.287	0.263	0.253	0.254	0.259	0.175	1.09	1.25	1.25	1.1	1.26
H3255	0.537	0.55	0.464	0.503	0.426	0.519	0.592	0.526	0.627	0.473	0.575	0.644	0.55	0.602	0.698	0.81	0.968	0.967	0.897	0.96
HARA	0.44	0.485	0.365	0.348	0.31	0.482	0.396	0.586	0.43	0.195	0.0982	0.133	0.128	0.104	0.11	0.96	0.829	1.08	0.942	0.975
HCC-15	0.765	0.787	0.86	0.665	0.754	0.759	0.672	0.726	0.641	0.373	0.374	0.333	0.303	0.393	0.49	0.824	0.868	0.912	0.861	0.885
HCC-44	0.615	0.563	0.593	0.552	0.514	0.775	0.445	0.656	0.463	0.225	0.896	0.875	0.947	0.874	0.605	0.691	0.628	0.675	0.607	0.674
HCC-78	0.267	0.202	0.246	0.206	0.169	0.362	0.408	0.352	0.347	0.279	0.384	0.339	0.408	0.394	0.354	0.488	0.517	0.54	0.497	0.403
HCC-366	0.151	0.0838	0.14	0.11	0.117	0.727	–	1.06	0.823	0.322	0.114	–	0.135	0.108	0.123	0.636	0.832	0.734	0.501	0.638

Cell Line	relative viability ([1]; first compound 0.02 µM)	relative viability ([1]; first compound 0.06325 µM)	relative viability ([1]; first compound 0.2 µM)	relative viability ([1]; first compound 0.6325 µM)	relative viability ([1]; first compound 2 µM)	relative viability ([2]; first compound 0.02 µM)	relative viability ([2]; first compound 0.06325 µM)	relative viability ([2]; first compound 0.2 µM)	relative viability ([2]; first compound 0.6325 µM)	relative viability ([2]; first compound 2 µM)	relative viability ([3]; first compound 0.02 µM)	relative viability ([3]; first compound 0.06325 µM)	relative viability ([3]; first compound 0.2 µM)	relative viability ([3]; first compound 0.6325 µM)	relative viability ([3]; first compound 2 µM)	relative viability ([4]; first compound 0.02 µM)	relative viability ([4]; first compound 0.06325 µM)	relative viability ([4]; first compound 0.2 µM)	relative viability ([4]; first compound 0.6325 µM)	relative viability ([4]; first compound 2 µM)
HCC-827	1.13	0.938	0.996	0.845	0.969	0.771	0.725	0.765	0.741	0.779	0.403	0.446	0.417	0.38	0.472	0.944	0.928	1	0.935	0.884
HOP-62	0.409	0.92	0.695	0.861	0.662	0.742	1.02	0.833	0.827	0.607	0.352	0.354	0.34	0.328	0.363	1.04	0.982	1.1	1.01	1.06
IA-LM	–	0.524	0.308	0.333	0.286	–	–	–	–	–	–	–	–	–	–	0.516	0.729	0.607	0.606	0.694
LC-2-ad	0.465	0.533	0.478	0.411	0.335	0.893	0.752	0.807	0.757	0.454	0.444	0.353	0.46	0.406	0.449	0.76	0.885	0.784	0.726	0.854
LCLC-97TM1	0.186	0.185	0.21	0.141	0.178	0.556	0.522	0.436	0.461	0.145	0.201	0.224	0.194	0.211	0.145	0.23	0.188	0.203	0.162	0.145
LCLC-103H	0.61	0.768	0.706	0.539	0.531	0.431	0.493	0.489	0.377	0.308	0.563	0.424	0.45	0.52	0.456	1.05	0.799	1.03	0.976	1.08
LK-2	0.678	0.587	0.596	0.497	0.392	0.225	0.23	0.201	0.184	0.147	0.174	0.189	0.159	0.191	0.165	0.68	0.523	0.69	0.644	0.516
LOU-NH91	0.528	0.535	0.535	0.498	0.484	0.726	0.767	0.673	0.681	0.464	0.619	0.739	0.634	0.63	0.588	0.982	1.01	0.928	0.954	0.97
NCI-H522	–	–	–	–	–	0.706	0.763	0.675	0.717	0.562	0.64	0.504	0.641	0.542	0.549	–	–	–	–	–
NCI-H1299	0.753	0.925	0.931	0.762	0.85	–	–	–	–	–	–	–	–	–	–	0.841	1.1	0.985	0.919	0.927
NCI-H1563	0.663	0.659	0.691	0.635	0.634	0.834	0.823	0.76	0.734	0.65	–	–	–	–	–	1.19	1.23	1.12	1.1	1.3
NCI-H1623	–	–	–	–	–	0.411	0.415	0.419	0.421	0.253	0.405	0.413	0.473	0.403	0.38	–	–	–	–	–
NCI-H1648	–	–	–	–	–	0.238	–	0.313	0.246	0.261	0.408	–	0.629	0.404	0.416	–	–	–	–	–
NCI-H1650	0.562	0.531	0.594	0.553	0.656	0.688	0.605	0.783	0.677	0.493	0.434	0.446	0.459	0.375	0.411	–	–	–	–	–
NCI-H1703	0.241	0.318	0.187	0.243	0.232	–	–	–	–	–	–	–	–	–	–	1.04	1.13	1.1	0.696	0.741
NCI-H1792	0.26	0.16	0.341	0.214	0.296	0.722	0.65	0.728	0.666	0.294	–	–	–	–	–	0.519	0.309	0.557	0.456	0.593
NCI-H2170	0.296	0.273	0.369	0.28	0.258	0.714	0.777	0.729	0.71	0.679	0.6	0.697	0.689	0.734	0.795	–	–	–	–	–
NCI-H2342	–	–	–	–	–	0.506	0.682	0.628	0.632	0.535	0.438	0.561	0.688	0.465	0.469	–	–	–	–	–
SW 900	–	–	–	–	–	0.635	0.499	0.602	0.608	0.504	0.453	0.607	0.702	0.545	0.566	–	–	–	–	–
